In patent US10189854B2, “Substituted pyrimidine compounds” (Grünenthal GmbH, priority 2014, dated 2019):

These compounds were tested against human PDE4B1 (Homo sapiens (Human), UniProt Q07343) (assay: cAMP HTRF assay to determine the activity of hPDE4B1). Conditions: IC50 inhibition of PDE4B; human recombinant PDE4B1, cAMP HTRF assay.
Format: biochemical
Description: Biological Testing cAMP HTRF® Assay to Determine the Activity of hPDE4B1
The inhibiting effect of the compounds on the enzyme activity of human PDE4B1 was measured by the quantification of 5′-adenosine monophosphate (5′-AMP), which is formed from 3′,5′-cyclic adenosine monophosphate (cAMP). Human recombinant enzyme, expressed in Sf9 cells, and the HTRF (homogeneous time-resolved fluorescence) detection method were used in the assay.
The test compound or water (control) was mixed with the human recombinant PDE4B1 enzyme (4.8 U) in a buffer consisting of 44.4 mM tris-HCl, 5.28 mM MgCl2, 2.64 mM DTT and 0.044% Tween 20 (pH 7.8). After adding the cAMP enzyme substrate (final concentration 40 nM), the mixture was incubated for 30 minutes at room temperature. Then a fluorescence acceptor (Dye2 marked with cAMP), a fluorescence donor (anti-cAMP antibody marked with a europium cryptate) and the non-specific phosphodiesterase inhibitor IBMX (3-isobutyl-1-methylxanthine; final concentration 1 mM) were added. After 60 min the fluorescence transfer, which correlates with the amount of remaining cAMP, was measured with a microplate reader (Rubystar, BMG) at λex=337 nm, λem=620 nm and λem=665 nm. The enzyme activity was calculated from the quotient formed from the measured signal at 665 nm and that at 620 nm. The result was expressed as the percentage inhibition of enzyme activity of the control (without PDE4 inhibitor). The enzyme was omitted for measurement of the basal control.
[N. Saldou et al., Comparison of recombinant human PDE4 isoforms: interaction with substrate and inhibitors, Cell. Signal. Vol. 10, No. 6, 427-440, 1998]. Several compounds according to the invention are tested in the above-described assay.

Chain of human PDE4B1 (Q07343 whole entry): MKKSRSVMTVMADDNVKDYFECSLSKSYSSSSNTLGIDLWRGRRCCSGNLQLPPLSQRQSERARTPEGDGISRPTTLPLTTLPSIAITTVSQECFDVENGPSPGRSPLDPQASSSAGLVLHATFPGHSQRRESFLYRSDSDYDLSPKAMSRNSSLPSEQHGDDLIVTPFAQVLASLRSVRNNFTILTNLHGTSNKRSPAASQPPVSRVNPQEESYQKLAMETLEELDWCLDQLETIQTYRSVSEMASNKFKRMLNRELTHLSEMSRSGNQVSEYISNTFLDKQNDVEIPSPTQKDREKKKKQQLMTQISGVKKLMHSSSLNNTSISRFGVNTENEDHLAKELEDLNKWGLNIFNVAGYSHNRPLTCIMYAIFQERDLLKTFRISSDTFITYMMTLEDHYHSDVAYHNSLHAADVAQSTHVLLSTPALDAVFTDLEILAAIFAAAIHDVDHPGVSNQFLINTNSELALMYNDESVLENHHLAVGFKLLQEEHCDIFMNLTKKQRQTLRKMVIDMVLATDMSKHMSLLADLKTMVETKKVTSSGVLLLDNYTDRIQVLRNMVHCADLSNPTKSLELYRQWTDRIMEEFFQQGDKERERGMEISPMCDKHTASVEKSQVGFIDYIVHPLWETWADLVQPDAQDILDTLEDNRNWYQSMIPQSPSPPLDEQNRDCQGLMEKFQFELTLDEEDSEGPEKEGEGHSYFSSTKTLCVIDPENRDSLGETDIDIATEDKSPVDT

| IC50 [µM] | Compound |
| --- | --- |
| 0.1 to 1 | O=C(c1ccc2c(c1)N(c1ncc(-c3ccccc3F)cn1)CC21CC1)N1CCCCC12COC2 [Compound 80, [1-[5-(2-Fluorophenyl)-pyrimidin-2-yl]-spiro[1,2-dihydro-indole-3,1′-cyclopropane]-6-yl]-(2-oxa-5-azaspiro[3.5]nonan-5-yl)-methanone] |
| 0.1 to 1 | NC(=O)c1ccccc1-c1cnc(N2CC3(CC3)c3ccc(C(=O)N4CCOCC4)cc32)nc1 [Compound 25, 2-[2-[6-(Morpholine-4-carbonyl)-spiro[1,2-dihydro-indole-3,1′-cyclopropane]-1-yl]-pyrimidin-5-yl]-benzamide] |
| < 0.1 | N#Cc1cccc(-c2cnc(N3CC4(CC4)c4ccc(C(=O)N5CCOCC5)cc43)nc2)c1 [Compound 56, 3-[2-[6-(Morpholine-4-carbonyl)-spiro[1,2-dihydro-indole-3,1′-cyclopropane]-1-yl]-pyrimidin-5-yl]-benzonitrile] |
| < 0.1 | Cc1ccnc(-c2cnc(N3CC4(CC4)c4ccc(C(=O)N(C)CCO)cc43)nc2)c1 [Compound 210, N-(2-Hydroxy-ethyl)-N-methyl-1-[5-(4-methyl-pyridin-2-yl)-pyrimidin-2-yl]-spiro[1,2-dihydro-indole-3,1′-cyclopropane]-6-carboxylic acid amide] |
| < 0.1 | O=C(c1ccc2c(c1)N(c1ncc(-c3cc(OC(F)(F)F)ccc3F)cn1)CC21CC1)N1CCNCC1 [Compound 72, [1-[5-[2-Fluoro-5-(trifluoromethyloxy)-phenyl]-pyrimidin-2-yl]-spiro[1,2-dihydro-indole-3,1′-cyclopropane]-6-yl]-piperazin-1-yl-methanone] |
| 1 to 10 | NC(=O)C1CCN(C(=O)c2ccc3c(c2)N(c2ncc(-c4ccccc4F)cn2)CC32CC2)CC1 [Compound 216, 1-[1-[5-(2-Fluorophenyl)-pyrimidin-2-yl]-spiro[1,2-dihydro-indole-3,1′-cyclopropane]-6-carbonyl]-piperidine-4-carboxylic acid amide] |
| 0.1 to 1 | O=C(c1ccc2c(c1)N(c1ncc(-c3ccccc3F)cn1)CC21CC1)N1CCC1 [Compound 89, (Azetidin-1-yl)-[1-[5-(2-fluorophenyl)-pyrimidin-2-yl]-spiro[1,2-dihydro-indole-3,1′-cyclopropane]-6-yl]-methanone] |
| 0.1 to 1 | CC1COCC(C)N1C(=O)c1ccc2c(c1)N(c1ncc(-c3ccccc3F)cn1)CC21CC1 (stereo not drawn) [Compound 101, (3,5-Dimethyl-morpholin-4-yl)-[1-[5-(2-fluorophenyl)-pyrimidin-2-yl]-spiro[1,2-dihydro-indole-3,1′-cyclopropane]-6-yl]-methanone] |
| < 0.1 | COc1ccc(F)c(-c2cnc(N3CC4(CC4)c4ccc(C(=O)N5CCNCC5)cc43)nc2)c1 [Compound 73, [1-[5-(2-Fluoro-5-methoxy-phenyl)-pyrimidin-2-yl]-spiro[1,2-dihydro-indole-3,1′-cyclopropane]-6-yl]-piperazin-1-yl-methanone] |
| < 0.1 | [1-[5-(1-Fluorophenyl)-pyrimidin-2-yl]-spiro[1,2-dihydro-indole-3,1′-cyclopropane]-6-yl]-pyrrolidin-1-yl-methanone [Compound 3] |
| < 0.1 | [1-[5-(6-Methyl-pyridazin-3-yl)-pyrimidin-2-yl]-spiro[1,2-dihydro-indole-3,1′-cyclopropane]-6-yl]-morpholin-4-yl-methanone [Compound 196] |
| < 0.1 | O=C(c1ccc2c(c1)N(c1ncc(-c3cncc(F)c3)cn1)CC21CC1)N1CCOCC1 [Compound 157, [1-[5-(5-Fluoro-pyridin-3-yl)-pyrimidin-2-yl]-spiro[1,2-dihydro-indole-3,1′-cyclopropane]-6-yl]-morpholin-4-yl-methanone] |
| < 0.1 | NC(=O)c1cccc(-c2cnc(N3CC4(CC4)c4ccc(C(=O)N5CC[C@@H](N)C5)cc43)nc2)c1 [Compound 118, 3-[2-[6-[(3R)-3-Amino-pyrrolidine-1-carbonyl]-spiro[1,2-dihydro-indole-3,1′-cyclopropane]-1-yl]-pyrimidin-5-yl]-benzamide] |
| 0.1 to 1 | NC(=O)c1ccc2c(c1)N(c1ncc(-c3ccccc3F)cn1)CC21CC1 [Compound 127, 1-[5-(2-Fluorophenyl)-pyrimidin-2-yl]-spiro[1,2-dihydro-indole-3,1′-cyclopropane]-6-carboxylic acid amide] |
| < 0.1 | CN(C)c1ccnc(-c2cnc(N3CC4(CC4)c4ccc(C(=O)N5CCOCC5)cc43)nc2)c1 [Compound 208, [1-[5-(4-Dimethylamino-pyridin-2-yl)-pyrimidin-2-yl]-spiro[1,2-dihydro-indole-3,1′-cyclopropane]-6-yl]-morpholin-4-yl-methanone] |
| < 0.1 | [1-[5-(6-Chloro-pyrimidin-4-yl)-pyrimidin-2-yl]-spiro[1,2-dihydro-indole-3,1′-cyclopropane]-6-yl]-morpholin-4-yl-methanone [Compound 206] |
| < 0.1 | O=C(c1ccc2c(c1)N(c1ncc(-c3ccc(F)cn3)cn1)CC21CC1)N1CCOCC1 [Compound 165, [1-[5-(5-Fluoro-pyridin-2-yl)-pyrimidin-2-yl]-spiro[1,2-dihydro-indole-3,1′-cyclopropane]-6-yl]-morpholin-4-yl-methanone] |
| < 0.1 | O=C(c1ccc2c(c1)N(c1ncc(-c3cc(Cl)ccc3F)cn1)CC21CC1)N1CCOCC1 [Compound 58, [1-[5-(5-Chloro-2-fluoro-phenyl)-pyrimidin-2-yl]-spiro[1,2-dihydro-indole-3,1′-cyclopropane]-6-yl]-morpholin-4-yl-methanone] |
| < 0.1 | C[C@@H]1CN(C(=O)c2ccc3c(c2)N(c2ncc(-c4ccccc4F)cn2)CC32CC2)C[C@H](C)O1 [Compound 104, [(2R,6S)-2,6-dimethyl-morpholin-4-yl]-[1-[5-(2-fluorophenyl)-pyrimidin-2-yl]-spiro[1,2-dihydro-indole-3,1′-cyclopropane]-6-yl]-methanone] |
| 1 to 10 | O=C(c1ccc2c(c1)N(c1ncc(-c3ccccc3C3CC3)cn1)CC21CC1)N1CCOCC1 [Compound 62, [1-[5-(2-Cyclopropyl-phenyl)-pyrimidin-2-yl]-spiro[1,2-dihydro-indole-3,1′-cyclopropane]-6-yl]-morpholin-4-yl-methanone] |
| 0.1 to 1 | CN(C)C(=O)c1ccccc1-c1cnc(N2CC3(CC3)c3ccc(C(=O)N4CCOCC4)cc32)nc1 [Compound 21, N,N-Dimethyl-2-[2-[6-(morpholine-4-carbonyl)-spiro[1,2-dihydro-indole-3,1′-cyclopropane]-1-yl]-pyrimidin-5-yl]-benzamide] |
| 0.1 to 1 | Cc1noc(C)c1-c1cnc(N2CC3(CC3)c3ccc(C(=O)N4CCOCC4)cc32)nc1 [Compound 135, [1-[5-(3,5-Dimethyl-isoxazol-4-yl)-pyrimidin-2-yl]-spiro[1,2-di-hydro-indole-3,1′-cyclopropane]-6-yl]-morpholin-4-yl-methanone] |
| 0.1 to 1 | N#Cc1ccccc1-c1cnc(N2CC3(CC3)c3ccc(C(=O)N4CCOCC4)cc32)nc1 [Compound 18, 2-[2-[6-(Morpholine-4-carbonyl)-spiro[1,2-dihydro-indole-3,1′-cyclopropane]-1-yl]-pyrimidin-5-yl]-benzonitrile] |

| Compound | IC50 [µM] |
| --- | --- |
| 1-[5-(3-Cyano-phenyl)-pyrimidin-2-yl]-N-(2-hydroxy-ethyl)-N-methyl-spiro[1,2-dihydro-indole-3,1′-cyclo-propane]-6-carboxylic acid amide [Compound 193] | < 0.1 |
